Patent US6133322A, “Quinone derivatives for treating or preventing diseases associated with iron overload” (Institut National de la Sante et de la Recherche Medicale …, priority 1998, dated 2000)
Values belong to the molecule of their own block, whether it stands above or below them.

Key:
membrane lipids = assay: Iron-induced peroxidation of membrane lipids (cis-parinaric acid fluorescent probe) in human heart homogenates; type: biochemical; conditions: for iron-induced damages of the membrane components (in words): in vitro system, summary; for peroxidation of membrane lipids (in words): FIG. 1A, iron form added to heart homogenate
Experimental: (§1) Human heart homogenates were used as an in vitro model to mimic the action of iron on mitochondrial ISPs and to test the potentially protective effect of various substances.
(§2) These homogenates were prepared under low iron-chelating conditions using the procedures described in Rustin P. et al., Biochemical and molecular investigations in respiratory chain deficiencies, Clin. Chim. Acta., 228, 35-51 (1994). Briefly, homogenate from frozen human heart was obtained surgically and prepared at ice-melting temperature in a 0.1 M Tris-HCI buffer (pH 7.3) by five strokes of hand-driven ground glass potter using the procedures described in Sanchez-Casis et al., Pathology of the heart in Friedreich's ataxia: review of the literature and report of one case, Can. J. Neurol. Sci., 3, 349-354 (1977). After filtering through a 90 μm nylon net, homogenate was sampled and frozen at -80° C. for enzyme studies.
(§3) The endogenous antioxidant defenses of heart mitochondria were neutralized by simple dilution, and free access of iron to its specific targets was achieved by freeze-thaw disrupting mitochondrial membranes.
Lipoperoxidation, a marker of non-specific peroxidative damages caused to membrane components, was monitored in the presence of either reduced or oxidized iron. Cis-parinaric acid (c-PN) was used as a fluorescent probe for lipoperoxidation (15,16). Measurements were performed in a 37° C. thermostated quartz cell, magnetically stirred, and containing 2 ml 0.1 M Tris-HCI buffer (pH 7.3) using a LS540B Spectrofluorimeter (Perkin-Elmer, England). Excitation: 318 nm; 5 nm band-pass Emission: 410 nm; 5 nm band-pass.
(§4) Lipids peroxidation, complex II activity, and aconitase activity were monitored according to the methods of example 1 above.

aconitases = assay: Aconitase activity (aconitate accumulation at 240 nm in the presence of citrate) in human heart homogenate; type: biochemical; conditions: for Iron-induced damages to: Aconitases: 5 nM Fe^2+ + 2 nM EDTA + 6 U of the one enzyme
Experimental: as §1, §2, §3
(§5) The activities of two enzymes specifically targeted in FRDA, namely membrane-bound respiratory chain complex II and soluble (mitochondrial plus cytosolic) aconitases, were monitored under either low or high iron chelating conditions, in the presence of either reduced or oxidized iron. Complex II activity was measured on freeze-thaw heart homogenate as the dichlorophenolindophenol quinone reductase (DCPIP) (14). Aconitase activity in heart homogenate, corresponding to the combined mitochondrial and cytosolic enzyme activities, was measured by following the aconitate accumulation at 240 nm in the presence of citrate (6). All measurements were performed using a DW2000 Aminco Spectrophotometer (SLM, USA) in a 37° C. thermostated quartz cell, magnetically stirred, and containing 2 ml 0.1 M Tris-HCI buffer (pH 7.3).
as §4
Aconitase was assayed after additional 3 min incubation with 250 μM desferrixamine. Trace b: Aconitase activity measured after 6 min incubation in Tris-HCI buffer containing 250 μM desferrioxamine in the absence of Fe^2+.

complex II = assay: Complex II activity (succinate quinone DCPIP reductase) in freeze-thaw human heart homogenate; type: biochemical; conditions: for protection of complex II from iron induced damages (in words): succinate alone or 60 μM oxidized idebenone alone, FIG. 2C traces a, b
Experimental: as §1, §2, §3, §5, §4

FRDA patients = assay: Idebenone administration in FRDA patients: cardiac hypertrophy and cerebellar ataxia; type: in vivo, human
Experimental: Based on the previous in vitro data and owing to the innocuousness of the drug, five children ranging in age from 71/2 to 14 years and two young adults, all diagnosed with FDRA, were given idebenone orally (5 mg/kg/day).
The results observed after a course of treatment ranging from about 4 to about 9 months of administration at this dosage, are shown in FIG. 3:
A) Follow up of heart ultrasound parameters in patients 1, 6 and 7. LV: left ventricle. Note the decreased septal and left ventricle posterior wall thickness;
B) changes in cerebellar ataxia noted by parents and uninformed teachers. ®: Unchanged; : decrease; 0: No initial involvement.

[1] = 5 nM Fe^2+ + 50 μM quinone, no succinate
[2] = 5 nM Fe^2+ + 10 mM succinate + 50 μM quinone
[3] = idebenone orally 5 mg/kg/day, about 4 to about 9 months
[4] = noted by the parents and uninformed teachers
[5] = quinone reduced in situ by the respiratory chain (succinate)

Molecule: COC1=C(OC)C(=O)C(CC=C(C)CCC=C(C)CCC=C(C)CCC=C(C)C)=C(C)C1=O [CoQ4]
- Iron-induced damages to: Lipids (membrane lipids; [1]): -74 ± 3%
- Iron-induced damages to: Lipids (membrane lipids; [2]): -1 ± 1%

- decrease of aconitase activity (aconitases; 3 min with 5 nM Fe^2+ + 8 μM CoQ10 without succinate, then 3 min 250 μM desferrioxamine, FIG. 2D trace c): 77%
Molecule: COC1=C(OC)C(=O)C(CC=C(C)CCC=C(C)CCC=C(C)CCC=C(C)CCC=C(C)CCC=C(C)CCC=C(C)CCC=C(C)CCC=C(C)CCC=C(C)C)=C(C)C1=O [CoQ10]
- Iron-induced damages to: Lipids (membrane lipids; [1]): -66 ± 2%
- Iron-induced damages to: Lipids (membrane lipids; [2]): -1 ± 0.4%
- protection against iron-induced lipoperoxidation (in words) (membrane lipids; 8 μM CoQ10 reduced in situ by 3 min incubation with 10 mM succinate, FIG. 2B trace b): full protection
- protection against iron-induced lipoperoxidation (in words) (membrane lipids; 8 μM oxidized CoQ10, absence of succinate, FIG. 2B trace a): did not protect from iron-induced lipoperoxidation

Molecule: O=C(O)CN(CCN(CC(=O)O)CC(=O)O)CC(=O)O [EDTA]
- protection of complex II activity (in words) (complex II; 1 nM EDTA added to the iron-supplemented (5 nM reduced iron) medium, FIG. 1B trace b): fully protected
- Iron-induced damages to: Lipids (membrane lipids; 5 nM Fe^2+ + 2 nM EDTA): -2 ± 1%

Molecule: O=C1O[C@H]([C@@H](O)CO)C(O)=C1O [ascorbate]
- iron-induced damages of the membrane components (in words) (membrane lipids): enhancing these damages

- decrease in aconitase activity (in words) (aconitases; 200 μM desferrioxamine alone, 6 min pre-incubation, no Fe^2+, FIG. 2D trace b): no decrease in enzyme activity
- loss of aconitase activity (aconitases; 250 μM desferrioxamine + 5 nM reduced iron, FIG. 1C trace d): 80%
- inhibition of aconitase activity (in words) (aconitases; desferrioxamine in the absence of iron, FIG. 1C trace c): No inhibition of aconitase activity
Molecule: CC(=O)N(O)CCCCCNC(=O)CCC(=O)N(O)CCCCCNC(=O)CCC(=O)N(O)CCCCCN [desferrioxamine]
- Iron-induced damages to: Lipids (membrane lipids; 5 nM Fe^2+ + 120 μM desferrioxamine): 0 ± 1%

Molecule: N[C@@H](CCC(=O)N[C@@H](CS)C(=O)NCC(=O)O)C(=O)O [glutathione]
- iron-induced damages of the membrane components (in words) (membrane lipids): enhancing these damages

- protection of complex II activity (in words) (complex II; succinate and 60 μM idebenone added simultaneously (20% of idebenone reduced), FIG. 2C trace c): full protection
Molecule: COC1=C(OC)C(=O)C(CCCCCCCCCCO)=C(C)C1=O [idebenone, 6-(10-hydroxydecyl)-2,3-dimethoxy-5-methyl-1,4-benzoquinone]
- myocardial hypertrophy (in words) (FRDA patients; 4 to 9 month regime, five FRDA patients): significant decrease
- deep tendon reflexes (in words) (FRDA patients; after a 9 month course): have not reappeared
- improvement of asynergia/dysmetria (finger-nose test) (patients improved/total) (FRDA patients; [3]): 3/5
- improvement of delicate movements (handwriting) (patients improved/total) (FRDA patients; [3]): 4/5
- improvement of gait ataxia (patients improved/total) (FRDA patients; [3]): 2/5
- improvement of muscle strength (patients improved/total) (FRDA patients; [3]): 5/5
- general condition (in words) (FRDA patients; [4]): improvement
- hand clumsiness (in words) (FRDA patients; [4]): decrease
- decrease of left ventricle mass index (FRDA patients; ultrasound, three patients): -21 to -32%
- reduction of left ventricle wall (FRDA patients; ultrasound, three patients): -8 to -20%
- reduction of septal thickness (FRDA patients; ultrasound, three patients): -31 to -36%
- protection of membrane-anchored complex II against iron injury (in words) (complex II; [5]): efficiently protected
- protection of complex II from iron induced damages (in words) (complex II): did not protect complex II
- Iron-induced damages to: Lipids (membrane lipids; 5 nM Fe^2+ + 60 μM idebenone, no succinate): -63 ± 4%
- Iron-induced damages to: Lipids (membrane lipids; 5 nM Fe^2+ + 10 mM succinate + 60 μM idebenone): -1 ± 0.4%
- protection against iron-induced lipoperoxidation (in words) (membrane lipids; 60 μM oxidized idebenone, 3 min, no succinate, FIG. 2A trace a): No protection
- protection against iron-induced lipoperoxidation (in words) (membrane lipids; idebenone reduced in situ by succinate (about 2 μM reduced), FIG. 2A trace b): significant protection
- protection against iron-induced lipoperoxidation (in words) (membrane lipids; longer incubation with succinate (12 μM reduced; 20% of total idebenone), FIG. 2A trace c): enhanced
- protection of membrane lipids against iron injury (in words) (membrane lipids; [5]): efficiently protected
- prevention of the loss of aconitase activity induced by water-soluble chelators in the presence of reduced iron (in words) (aconitases; Table 2): neither succinate nor idebenone nor succinate+idebenone prevents the loss of aconitase activity

Molecule: O=C(O)CCC(=O)O [succinate]
- protection of complex II from iron induced damages (in words) (complex II): did not protect complex II
- Iron-induced damages to: Lipids (membrane lipids; 5 nM Fe^2+ + 10 mM succinate): -58 ± 3%
- protection of membrane lipids against iron-induced peroxidation (in words) (membrane lipids; succinate alone): failed to protect

Molecule: SOD: superoxide dismutase, water-soluble antioxidant enzyme
- iron-induced damages of the membrane components (in words) (membrane lipids): unable to prevent
- Iron-induced damages to: Aconitases (aconitases): -75 ± 1%

Molecule: ferric chloride [Fe^3+]
- peroxidation of membrane lipids (in words) (membrane lipids): no damage was observed
- peroxidation of membrane lipids (in words) (membrane lipids; listed as oxidized iron): did not significantly after membrane lipids

Molecule: ferrous chloride [Fe^2+]
- activity of complex II (in words) (complex II; 1 min incubation with 5 nM reduced iron, FIG. 1B trace c): strongly affected
- peroxidation of membrane lipids (in words) (membrane lipids; listed as Reduced iron): triggered an immediate peroxidation of the membrane lipid
- peroxidation of membrane lipids (in words) (membrane lipids; listed as reduced iron): rapid lipoperoxidation
- aconitase activity (in words) (aconitases; 10 min incubation with 5 nM reduced iron, FIG. 1C trace b): not affected

B1: catalase: water-soluble antioxidant enzyme (protein, UniProt P04040 2-527, looked up)
Catalase: ADSRDPASDQMQHWKEQRAAQKADVLTTGAGNPVGDKLNVITVGPRGPLLVQDVVFTDEMAHFDRERIPERVVHAKGAGAFGYFEVTHDITKYSKAKVFEHIGKKTPIAVRFSTVAGESGSADTVRDPRGFAVKFYTEDGNWDLVGNNTPIFFIRDPILFPSFIHSQKRNPQTHLKDPDMVWDFWSLRPESLHQVSFLFSDRGIPDGHRHMNGYGSHTFKLVNANGEAVYCKFHYKTDQGIKNLSVEDAARLSQEDPDYGIRDLFNAIATGKYPSWTFYIQVMTFNQAETFPFNPFDLTKVWPHKDYPLIPVGKLVLNRNPVNYFAEVEQIAFDPSNMPPGIEASPDKMLQGRLFAYPDTHRHRLGPNYLHIPVNCPYRARVANYQRDGPMCMQDNQGGAPNYYPNSFGAPEQQPSALEHSIQYSGEVRRFNTANDDNVTQVRAFYVNVLNEEQRKRLCENIAGHLKDAQIFIQKKAVKNFTEVHPDYGSHIQALLDKYNAEKPKNAIHTFVQSGSHLAAREKANL
- iron-induced damages of the membrane components (in words) (membrane lipids): unable to prevent
- Iron-induced damages to: Aconitases (aconitases): -46 ± 2%
